Measured values published in publication PMC10407933, “Four of a Kind: A Complete Collection of ADP-Ribosylated Histidine Isosteres Using Cu(I)- and Ru(II)-Catalyzed Click Chemistry” (The Journal of Organic Chemistry, 2023).
Like-named read-outs stand apart in the source and are kept apart here. Starred links: 1 amine or outer side, 2 acyl side, 3 side chain; linkers in the order of their positions; H or OH if unused. Non-standard residues stand in square brackets, D forms with d. Residues, ends and D or L forms follow the SMILES beside them. X2 = Nc1ncnc2c1ncn2[C@@H]1O[C@H](COP(=O)(O)OP(=O)(O)OC[C@H]2O[C@@H](n3nncc3C[C@H](N[*:1])C(=O)[*:2])[C@H](O)[C@@H]2O)[C@@H](O)[C@H]1O; X1 = Nc1ncnc2c1ncn2[C@@H]1O[C@H](COP(=O)(O)OP(=O)(O)OC[C@H]2O[C@H](n3nncc3C[C@H](N[*:1])C(=O)[*:2])[C@H](O)[C@@H]2O)[C@@H](O)[C@H]1O

Experiments:
[1] = 0.1 M NaOH; for additional peaks of identical mass (isomerization) after NaOH treatment: LC-MS
Description: With all four ADPr-His* conjugates available, we next evaluated their stability under various conditions in a liquid-chromatography mass-spectrometry (LC-MS) based assay. The conditions surveyed (NH2OH, TFA, and NaOH) were selected because of their frequent occurrence in ADP-ribosylome-focused proteomics studies.
(§1) Samples were extracted at different time points (2, 4, 8, 24, 48, and 169 h) and quenched with TFA prior to LC-MS injection. Peptide degradation was quantified by analyzing the UV-trace (260 nm) using Xcalibur software. […] Enzymatic turnover of the various peptides was assessed by monitoring AMP release directly (NudT16) or converting released ADPr via NudT5 to AMP. AMP was measured using the AMP-Glo assay (Promega). Samples are background corrected and normalized to NudT16 activity.
Figure S3. UV-trace (260 nm) of the obtained LC-MS spectra after treating β-configured 1,5-disubstituted triazole 24 with 0.1 M NaOH at various time points.
(1 picture or pasted object on this page, not shown here)
Figure S6. UV-trace (260 nm) of the obtained LC-MS spectra after treating α-configured 1,5-disubstituted triazole 29 with 0.1 M NaOH at various time points.

ARH3 = ARH3 (Homo sapiens, UniProt Q9NX46); conditions: 10 μM peptide, 0.5 μM hydrolase, 30 C, AMP-Glo luminescence, normalized to NudT16; for ARH3-mediated hydrolysis of the N-glycosidic linkage: 60 min, 50 mM TrisHCl pH 8, 200 mM NaCl, 10 mM MgCl2, 1 mM DTT, 0.2 μM human NUDT5
Description: as §1

[2] = 0 h, quenched with TFA, LC-MS UV-trace 260 nm
[3] = 2 h, quenched with TFA, LC-MS UV-trace 260 nm
[4] = 4 h, quenched with TFA, LC-MS UV-trace 260 nm
[5] = 8 h, quenched with TFA, LC-MS UV-trace 260 nm
[6] = 24 h, quenched with TFA, LC-MS UV-trace 260 nm
[7] = 48 h, quenched with TFA, LC-MS UV-trace 260 nm
[8] = 169 h, quenched with TFA, LC-MS UV-trace 260 nm

Chain of ARH3 (Q9NX46 whole entry): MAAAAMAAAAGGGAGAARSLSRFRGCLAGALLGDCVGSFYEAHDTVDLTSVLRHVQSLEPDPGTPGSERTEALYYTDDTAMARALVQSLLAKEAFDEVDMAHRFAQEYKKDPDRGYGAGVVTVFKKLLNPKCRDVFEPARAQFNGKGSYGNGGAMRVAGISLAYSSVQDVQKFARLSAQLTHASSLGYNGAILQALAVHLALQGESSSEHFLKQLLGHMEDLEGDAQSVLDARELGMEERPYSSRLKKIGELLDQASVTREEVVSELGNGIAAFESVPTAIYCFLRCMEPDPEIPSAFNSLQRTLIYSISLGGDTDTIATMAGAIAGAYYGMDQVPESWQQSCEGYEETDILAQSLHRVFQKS

Compound: CC(C)C[C@H](NC(=O)CNC(=O)[C@H](C)NC(=O)CNC(=O)[C@H](Cc1cnnn1[C@H]1O[C@H](COP(=O)(O)OP(=O)(O)OC[C@H]2O[C@@H](n3cnc4c(N)ncnc43)[C@H](O)[C@@H]2O)[C@@H](O)[C@H]1O)NC(=O)[C@H](Cc1ccccc1)NC(=O)[C@@H](N)[C@@H](C)O)C(=O)N[C@H](C(=O)N[C@H](C(=O)N1CCC[C@H]1C(=O)N[C@H](C(=O)N[C@@H](CC(=O)O)C(=O)N[C@@H](CCCCN)C(=O)O)C(C)C)C(C)C)C(C)C [compound 29] (H-TF[X1]GAGLVVPVDK-OH)
- Accumulated isomers (%) [1, 2]: 0%
- Intact peptide (%) [1, 2]: 100%
- Accumulated isomers (%) [1, 3]: 26%
- Intact peptide (%) [1, 3]: 74%
- Accumulated isomers (%) [1, 4]: 40%
- Intact peptide (%) [1, 4]: 60%
- Accumulated isomers (%) [1, 5]: 51%
- Intact peptide (%) [1, 5]: 49%
- Accumulated isomers (%) [1, 6]: 61%
- Intact peptide (%) [1, 6]: 39%
- Accumulated isomers (%) [1, 7]: 62%
- Intact peptide (%) [1, 7]: 38%
- Accumulated isomers (%) [1, 8]: 62%
- Intact peptide (%) [1, 8]: 38%
- ARH3-mediated hydrolysis of the N-glycosidic linkage (ARH3): capable of hydrolyzing
- conversion by ARH3 (ARH3; within the 1 h reaction, pH 8): ~50%

Compound: CC(C)C[C@H](NC(=O)CNC(=O)[C@H](C)NC(=O)CNC(=O)[C@H](Cc1cn([C@H]2O[C@H](COP(=O)(O)OP(=O)(O)OC[C@H]3O[C@@H](n4cnc5c(N)ncnc54)[C@H](O)[C@@H]3O)[C@@H](O)[C@H]2O)nn1)NC(=O)[C@H](Cc1ccccc1)NC(=O)[C@@H](N)[C@@H](C)O)C(=O)N[C@H](C(=O)N[C@H](C(=O)N1CCC[C@H]1C(=O)N[C@H](C(=O)N[C@@H](CC(=O)O)C(=O)N[C@@H](CCCCN)C(=O)O)C(C)C)C(C)C)C(C)C [compound 28]
- additional peaks of identical mass (isomerization) after NaOH treatment ([1]; 24 h): 12%
- ARH3-mediated hydrolysis of the N-glycosidic linkage (ARH3): very weakly

Compound: CC(C)C[C@H](NC(=O)CNC(=O)[C@H](C)NC(=O)CNC(=O)[C@H](Cc1cn([C@@H]2O[C@H](COP(=O)(O)OP(=O)(O)OC[C@H]3O[C@@H](n4cnc5c(N)ncnc54)[C@H](O)[C@@H]3O)[C@@H](O)[C@H]2O)nn1)NC(=O)[C@H](Cc1ccccc1)NC(=O)[C@@H](N)[C@@H](C)O)C(=O)N[C@H](C(=O)N[C@H](C(=O)N1CCC[C@H]1C(=O)N[C@H](C(=O)N[C@@H](CC(=O)O)C(=O)N[C@@H](CCCCN)C(=O)O)C(C)C)C(C)C)C(C)C [compound 23]
- additional peaks of identical mass (isomerization) after NaOH treatment ([1]; 24 h): 5%
- ARH3-mediated hydrolysis of the N-glycosidic linkage (ARH3): unaffected

Compound: CC(C)C[C@H](NC(=O)CNC(=O)[C@H](C)NC(=O)CNC(=O)[C@H](Cc1cnnn1[C@@H]1O[C@H](COP(=O)(O)OP(=O)(O)OC[C@H]2O[C@@H](n3cnc4c(N)ncnc43)[C@H](O)[C@@H]2O)[C@@H](O)[C@H]1O)NC(=O)[C@H](Cc1ccccc1)NC(=O)[C@@H](N)[C@@H](C)O)C(=O)N[C@H](C(=O)N[C@H](C(=O)N1CCC[C@H]1C(=O)N[C@H](C(=O)N[C@@H](CC(=O)O)C(=O)N[C@@H](CCCCN)C(=O)O)C(C)C)C(C)C)C(C)C [compound 24] (H-TF[X2]GAGLVVPVDK-OH)
- Accumulated isomers (%) [1, 2]: 0%
- Accumulated isomers (%) [1, 3]: 39%
- Intact peptide (%) [1, 3]: 61%
- Accumulated isomers (%) [1, 4]: 48%
- Accumulated isomers (%) [1, 7]: 71%
- Intact peptide (%) [1, 7]: 29%
- Accumulated isomers (%) [1, 8]: 71%
- Intact peptide (%) [1, 8]: 29%
- original peptide present after NaOH treatment ([1]; after 12 h, time course, quenched with TFA, LC-MS UV-trace 260 nm): 38%
- ARH3-mediated hydrolysis of the N-glycosidic linkage (ARH3): unaffected
